According to patent US8119380B2, “Methods and materials for making and using transgenic dicamba-degrading organisms” (Board of Regents of University of Nebraska, priority 1997, dated 2012):
Several values for one entry are separate records, joined by “and”; a condition that tells them apart may be missing. Identical values can stand only once.

Assays:
dicamba O-demethylase [1] = assay type: biochemical; conditions: mixture of three partially purified components, 30 minutes at 30° C.; 0.5 mM NADH, 0.5 mM NADPH, 10 mM MgCl2, 0.5 mM FeSO4, 0.2 mM FAD, 0.2 mM FMN
Experimental: (§1) Enzyme assays. […] At specific times, the reactions were stopped by adding 50 μl of 5% (vol/vol) H2SO4.
(§2) The solvent system for running the TLC was chloroform-ethanol-acetic acid (85:10:5 [vol/vol/vol]). The resolved reaction products were visualized and quantified by exposing the TLC plate to a phosphor screen for 24 hours and then scanning the screen in a PhosphorImager SF (Molecular Dynamics, Sunnyvale, Calif.). […] Specific activities were based on the total protein concentration of the assay mixture.
(§3) When a single component was assayed, the other two components were provided in excess.
(§4) Component and cofactor requirements. […] Samples were applied to a Q-Sepharose (Fast Flow) fast protein liquid chromatography column (Pharmacia) in buffer A and eluted with a 100-ml linear gradient of 0 to 0.6 M KCl (for the oxygenase component) or 0 to 1.0 M KCl (for the ferredoxin and reductase components) in 1.5-ml fractions. Appropriate pooled fractions from separate columns for oxygenase purification (fractions 29 to 37), for ferredoxin purification (fractions 30 to 37), or for reductase purification (fractions 26 to 38) were used for the determination of component and cofactor requirements.
(§5) The three components were assayed for O-demethylase activity in various combinations to determine component requirements.
(§6) The amounts of partially purified protein (provided in an optimized ratio) in the reaction mixtures were 85 μg of oxygenase, 55 μg of ferredoxin and 50 μg of reductase. The concentration of cofactors used in the reaction mixtures were 0.5 mM NADH, 0.2 mM FAD, 0.5 mM FeSO4, 10 mM MgCl2, 0.5 mM NADPH, and 0.2 mM FMN.

dicamba O-demethylase [2] = target: T1, dicamba O-demethylase (Stenotrophomonas maltophilia, UniProt Q5S3I3); assay type: biochemical; conditions: mixed with excess amounts of components I and III; 55 μg partially purified component II or 100 μg highly purified Clostridium ferredoxin
T1 construct: partially purified O-demethylase enzyme [the 40%-70% (w/v) (NH4)2SO4 fraction from a cleared cell lysate]; endogenous in cells; host or cells: Pseudomonas maltophilia strain DI-6 (cleared cell lysate, ammonium sulfate cut, or Phenyl-/Q-Sepharose fractions)
T1 sequence (Q5S3I3 2-339): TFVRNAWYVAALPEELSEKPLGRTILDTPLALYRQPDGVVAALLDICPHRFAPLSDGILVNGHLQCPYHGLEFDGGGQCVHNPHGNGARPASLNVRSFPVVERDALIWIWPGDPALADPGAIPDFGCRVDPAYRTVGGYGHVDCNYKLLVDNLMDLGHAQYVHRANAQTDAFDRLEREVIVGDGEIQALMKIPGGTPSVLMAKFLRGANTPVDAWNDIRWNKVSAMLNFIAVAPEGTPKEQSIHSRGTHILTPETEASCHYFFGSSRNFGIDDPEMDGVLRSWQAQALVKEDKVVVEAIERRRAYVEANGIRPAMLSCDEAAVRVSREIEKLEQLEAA
Experimental: as §1, §2, §3, §4, §5, §6

dicamba O-demethylase [3] = target: dicamba O-demethylase (Stenotrophomonas maltophilia, UniProt Q5S3I3); conditions: cleared cell lysate, less than 1 ppm oxygen, 30° C., within 1 hour
Experimental: Oxygen requirement. […] The procedures for displacement of oxygen from the reaction mixture were performed at 4° C. Reaction mixtures lacking enzyme were placed in a vial and sealed with a rubber stopper. For displacement of oxygen, the vial was evacuated twice by vacuum and flushed each time with nitrogen. After a third evacuation, the vial was flushed with 90% nitrogen plus 10% hydrogen. The enzyme solution was likewise purged of oxygen (with care taken not to bubble the enzyme solution). Both the reaction mixtures and enzyme solutions were transferred into an anaerobic chamber (95% N2-5% H2 atmosphere). Two hundred forty microliters of cleared cell lysate was injected through the rubber stopper with a microsyringe and gently mixed with 960 μl of oxygen-free reaction mixture. Reactions were carried out at 30° C.
COc1c(Cl)ccc(Cl)c1C(=O)O = experiment: cells, lysate or membranes named; conditions: other: partially purified O-demethylase (40%-70% ammonium sulfate fraction), pH 7.0, 30° C., Michaelis-Menten/Lineweaver-Burk fit, duplicate experiments
plants = conditions: cited from earlier work
[4] = Reductase assays (reduction of cytochrome c or DCIP in the presence of NADH); assay type: biochemical
Experimental: The reaction contained 0.5 mM NADH, 0.2 mM FAD (flavin adenine dinucleotide), 50 μM DCIP, 20 mM Tris buffer (pH 8.0), and 10-100 μl of enzyme sample in a total volume of 1 ml. The change in absorbance at 600 nm with time was measured at room temperature. Specific activity was calculated using an extinction coefficient at 600 nm of 21.0 mM^−1cm^−1 for reduced DCIP. Specific activity was expressed as nmol DCIP reduced min^−1 mg^−1 of protein.
In addition, an in situ DCIP assay was used to detect and locate the reductase activity in protein preparations separated on isoelectric focusing (IEF) gels. After electrophoresis of the proteins on an IEF gel, lanes sliced from the gel were washed with 20 ml of cold 20 mM Tris-HCl buffer (pH 8.0). Low melting agarose was dissolved by heating in 10 ml of 20 mM Tris-HCl buffer (pH 8.0) at a final concentration of 1.5% (w/v). When the agarose cooled to near room temperature, it was supplemented with 0.2 mM FAD, 50 μM DCIP, and 0.5 mM NADH. The assay mixture was poured onto a glass plate and allowed to solidify. The gel piece was placed on top of the solidified reaction mixture and allowed to set at room temperature for 15 minutes. If the gel slice contained a protein with reductase activity, a colorless band of reduced DCIP was generated in the blue background of DCIP.

NC(=O)C1=CN([C@@H]2O[C@H](COP(=O)(O)OP(=O)(O)OC[C@H]3O[C@@H](n4cnc5c(N)ncnc54)[C@H](O)[C@@H]3O)[C@@H](O)[C@H]2O)C=CC1 [NADH, beta-nicotinamide adenine dinucleotide, reduced form]
cofactor effect on dicamba O-demethylase activity (dicamba O-demethylase [1]): markedly more effective than NADPH

Cc1cc2nc3c(=O)[nH]c(=O)nc-3n(C[C@H](O)[C@H](O)[C@H](O)COP(=O)(O)OP(=O)(O)OC[C@H]3O[C@@H](n4cnc5c(N)ncnc54)[C@H](O)[C@@H]3O)c2cc1C [FAD, flavin adenine dinucleotide]
cofactor effect on dicamba O-demethylase activity (dicamba O-demethylase [1]): little or no stimulation

ferredoxin from Clostridium: highly purified ferredoxin from Clostridium pasteurianum (AYKIADSCVSCGACASECPVNAISQGDSIFVIDADTCIDCGNCANVCPVGAPVQE; UniProt P00195 2-56, looked up)
rate of conversion of dicamba to 3,6-DCSA (ferredoxin component) (dicamba O-demethylase [2]): 0.6 nmol/min/mg

Cc1cc2nc3c(=O)[nH]c(=O)nc-3n(C[C@H](O)[C@H](O)[C@H](O)COP(=O)(O)O)c2cc1C [FMN, flavin mononucleotide]
cofactor effect on dicamba O-demethylase activity (dicamba O-demethylase [1]): little or no stimulation

COc1c(Cl)ccc(Cl)c1C(=O)O [dicamba, 3,6-dichloro-2-methoxybenzoic acid]
conversion of dicamba to 3,6-DCSA under anaerobic conditions (dicamba O-demethylase [3]): virtually no conversion

NC(=O)C1=CN([C@@H]2O[C@H](COP(=O)(O)OP(=O)(O)OC[C@H]3O[C@@H](n4cnc5c(N)ncnc54)[C@H](OP(=O)(O)O)[C@@H]3O)[C@@H](O)[C@H]2O)C=CC1 [NADPH]
cofactor effect on dicamba O-demethylase activity (dicamba O-demethylase [1]): supported enzyme activity

dicamba O-demethylase (Stenotrophomonas maltophilia)
Km (COc1c(Cl)ccc(Cl)c1C(=O)O): 9.9 ± 3.9 µM and 10 µM

O=C(O)c1c(Cl)ccc(Cl)c1O [3,6-DCSA, 3,6-dichlorosalicylic acid]
herbicidal activity (plants): no herbicidal activity

B1: component I: oxygenase component of dicamba O-demethylase (protein)
chain: MTFVRNAWYVAALPEELSEKPLGRTILDTPLALYRQPDGVVAALLDICPHRFAPLSDGILVNGHLQCPYHGLEFDGGGQCVHNPHGNGARPASLNVRSFPVVERDALIWIWPGDPALADPGAIPDFGCRVDPAYRTVGGYGHVDCNYKLLVDNLMDLGHAQYVHRANAQTDAFDRLEREVIVGDGEIQALMKIPGGTPSVLMAKFLRGANTPVDAWNDIRWNKVSAMLNFIAVAPEGTPKEQSIHSRGTHILTPETEASCHYFFGSSRNFGIDDPEMDGVLRSWQAQALVKEDKVVVEAIERRRAYVEANGIRPAMLSCDEAAVRVSREIEKLEQLEAA
modifications: Pseudomonas maltophilia DI-6
notes: oxygenase component of dicamba O-demethylase
reductase activity with cytochrome c or DCPIP in the presence of NADH [4]: Neither component I nor component II showed activity
